# pIC50: −log10 of the molar value.
# Target: RAC-alpha serine/threonine-protein kinase (Homo sapiens, UniProt P31749)
# Experiment: Inhibition of PI3K-mediated Akt phosphorylation at Ser 473 in human U87MG cells after 2 hrs by alphascreen assay
# Sequence of RAC-alpha serine/threonine-protein kinase (P31749 whole entry): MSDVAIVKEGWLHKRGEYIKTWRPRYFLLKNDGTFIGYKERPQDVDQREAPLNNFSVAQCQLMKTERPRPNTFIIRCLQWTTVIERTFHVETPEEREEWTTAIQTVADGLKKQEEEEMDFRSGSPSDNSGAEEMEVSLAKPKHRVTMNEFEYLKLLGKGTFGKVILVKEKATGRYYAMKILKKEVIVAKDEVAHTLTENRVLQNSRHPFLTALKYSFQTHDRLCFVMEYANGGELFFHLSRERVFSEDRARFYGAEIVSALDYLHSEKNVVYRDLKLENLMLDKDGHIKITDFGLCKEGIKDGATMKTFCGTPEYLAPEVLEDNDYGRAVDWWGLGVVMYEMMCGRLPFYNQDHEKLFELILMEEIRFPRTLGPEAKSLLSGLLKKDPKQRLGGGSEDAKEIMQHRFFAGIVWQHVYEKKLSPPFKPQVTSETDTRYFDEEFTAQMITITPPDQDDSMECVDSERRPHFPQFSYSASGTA
row,Compound,pIC50
1,Nc1cn2cc(-c3cnc(Cl)c(NS(=O)(=O)c4ccc(F)cc4)c3)ccc2n1,< 4.92
2,Nc1nc2ccc(-c3cnc(Cl)c(NS(=O)(=O)c4ccc(F)cc4)c3)cc2[nH]1,< 4.92
3,Nc1cn2nc(-c3cnc(Cl)c(NS(=O)(=O)c4ccc(F)cc4)c3)ccc2n1,6.38
4,CC(=O)Nc1nc2ccc(-c3cnc(Cl)c(NS(=O)(=O)c4ccc(F)cc4)c3)cc2[nH]1,6.47
5,CC(=O)Nc1nc2ccc(-c3cnc(Cl)c(NS(=O)(=O)c4ccc(F)cc4)c3)cc2o1,5.96
6,O=S(=O)(Nc1cc(-c2ccc3nncn3c2)cnc1Cl)c1ccc(F)cc1,< 4.92
7,O=S(=O)(Nc1cc(-c2ccc3ncoc3c2)cnc1Cl)c1ccc(F)cc1,< 4.92
8,Nc1nc2ccc(-c3cnc(Cl)c(NS(=O)(=O)c4ccc(F)cc4)c3)cc2o1,7.00
9,O=S(=O)(Nc1cc(-c2ccc3nc[nH]c3c2)cnc1Cl)c1ccc(F)cc1,< 4.92
10,CC(=O)Nc1cn2cc(-c3cnc(Cl)c(NS(=O)(=O)c4ccc(F)cc4)c3)ccc2n1,6.93
11,CC(=O)Nc1cn2nc(-c3cnc(Cl)c(NS(=O)(=O)c4ccc(F)cc4)c3)ccc2n1,7.89
12,O=S(=O)(Nc1cc(-c2ccc3nccn3c2)cnc1Cl)c1ccc(F)cc1,6.24
13,O=S(=O)(Nc1cc(-c2ccc3sncc3c2)cnc1Cl)c1ccc(F)cc1,< 4.92

# Source: BindingDB's records for doi:10.1021/jm2004442 (Amgen, 2011)
